Assay results from patent publication US9512486B2, “Materials, methods, and systems for treating cancer” (The Institute of Cancer Research: Royal Cancer Hospital, priority 2012, dated 2016).

Key:
Type in all cases: cell-based
[1] = test system: CAL51 cells transfected with siRNA directed against RAD51D; experiment: Olaparib sensitivity after RAD51D silencing, cell viability (Cell TitreGlo), CAL51; conditions: siRAD51D vs siCONTROL and siBRCA2, olaparib titration for 7 days, FIG. 3A
Source text: (§1) This method has clinical utility both for individuals with cancer and their relatives. Cancer patients with RAD51D mutations may benefit from specific therapies such as Poly (ADP-Ribose) Polymerase (PARP) inhibitors, which have shown efficacy in patients with impairment of HR due to mutations in BRCA1 or BRCA2. To investigate this we used RNA interference (RNAi) and assessed the relationship between RAD51D loss of function and the sensitivity of tumor cells to a clinical PARP inhibitor, olaparib (AstraZeneca) 4-[(3-[(4-cyclopropylcarbonyl)piperazin-4-yl]carbonyl)-4-fluorophenyl]methyl(2H)phthalazin-1-one. Referring now to FIG. 3. The effect of RAD51D silencing on olaparib sensitivity. CAL51 (FIG. 3A) or MCF7 (FIG. 3B) cells were transfected with siCONTROL, siRNA directed against RAD51D or siRNA directed against BRCA2 and then treated with olaparib for 7 days before assaying for cell viability. Wild-type CHO cells or CHO cells mutated in RAD51D were treated with olaparib for 7 days before assaying for cell viability (FIG. 3C).
(§2) Non-silencing BRCA2 and RAD51D SIGENOME siRNAs (Dharmacon, Lafayette, Colo., USA) were used. […] After 7 days continuous culture, cell viability was estimated using Cell TitreGlo reagent (Promega Madison, Wis., USA) and surviving fractions calculated as previously described.

[2] = test system: MCF7 cells transfected with siRNA directed against RAD51D; experiment: Olaparib sensitivity after RAD51D silencing, cell viability (Cell TitreGlo), MCF7; conditions: siRAD51D vs siCONTROL and siBRCA2, olaparib titration for 7 days, FIG. 3B
Source text: as §1, §2

[3] = test system: CHO cells mutated in RAD51D; experiment: Olaparib sensitivity of wild-type versus RAD51D mutated CHO cells, cell viability; conditions: CHO RAD51D WT (51D1.3 clone) vs RAD51D deficient CHO (51D1 clone), olaparib for 7 days, FIG. 3C
Source text: as §1, §2

O=C(c1cc(Cc2n[nH]c(=O)c3ccccc23)ccc1F)N1CCN(C(=O)C2CC2)CC1 [olaparib, 4-[(3-[(4-cyclopropylcarbonyl)piperazin-4-yl]carbonyl)-4-fluorophenyl]methyl(2H)phthalazin-1-one]
olaparib sensitivity (Surviving Fraction) [1]: olaparib sensitivity of a magnitude similar to that achieved using silencing of BRCA2 | olaparib sensitivity (Surviving Fraction) [2]: olaparib sensitivity of a magnitude similar to that achieved using silencing of BRCA2 | olaparib sensitivity (Surviving Fraction) [3]: RAD51D selective effect | olaparib sensitivity (Surviving Fraction) ([3]; listed as Olaparib): particularly effective in causing the death of cells that have an inactivating mutation of RAD51D
